Data from US20020044973A1, “MICROPARTICLES AND THEIR USE IN CANCER TREATMENT” (priority 1997, published 2002).
Converted amounts (≈) assume the structure as drawn.

How the values were obtained:
C170HM2 = experiment: Example 5: liver tumour weight in tumour-bearing mice, loaded HSAMs vs free doxorubicin; format: in vivo; details: 0.24 mg/kg loaded HSAMs or 0.25 mg/kg free doxorubicin; dosing at day 27, termination at day 41; 12 mice per group
Experimental: 0.24 mg/kg doxorubicin-loaded HSAMs (drug loading approx. 1% w/w) were administered to a group of tumour-bearing mice (C170HM2). A further group received HSAMs, at a protein concentration of 100 mg/ml, as a control. A third group received 0.25 mg/kg free doxorubicin. There were 12 mice per group. Dosing was at day 27, termination at day 41.
For the control, the mean liver tumour weight was c. 1.3 g. Following administration of free doxorubicin, the mean weight was c. 0.3 g.

MCF7/Dox cell line = experiment: Cytotoxicity in doxorubicin-resistant P-glycoprotein expressing daughter cell line (cell counting, Coulter Counter); format: cell-based; details: Homo sapiens, 24 hours incubation, further 72 hours before counting, microspheres expressed as μg doxorubicin per ml
Experimental: More specifically, the experiment compared the cytotoxicity of a novel preparation of doxorubicin covalently-linked to a human serum albumin microsphere carrier between 2 and 3 μm in diameter on a doxorubicin-sensitive human breast cancer cell line and its doxorubicin-resistant P-glycoprotein expressing daughter cell line. […] The human MCF7 cell line and its doxorubicin-resistant daughter cell line, MCF7/Dox were used.
The medium was then changed, cells were incubated for a further 72 hours before harvesting and counting with a Coulter Counter.

With `COc1cccc2c1C(=O)c1c(O)c3c(c(O)c1C2=O)C[C@@](O)(C(=O)CO)C[C@@H]3O[C@H]1C[C@H](N)[C@H](O)[C@H](C)O1` [doxorubicin] the “mean liver tumour weight” value (C170HM2) was about 0.3 g and the IC50 (MCF7/Dox cell line) was 0.387 µg/mL (≈ 0.712 µM).
